Several values for one entry are separate records, joined by “and”; a condition that tells them apart may be missing. Equal entries are not always repeated. Entries after “also recorded” stand apart in the source; their conditions may differ.
Tests used:
[1] = ECoG and sedation in test animals free to move; type: in vivo; conditions: for duration of the ECoG effect / first signs of sedation: 7.5 mg/kg intragastric, animals free to move; for duration of ECoG effects (three compounds compared): unrestricted animals, compound 3 at 10 mg/kg
Experimental: Some test animals were kept in restraint cases placed in a relatively soundproof room and some were left free to move in metal cases measuring 40×50×30 cm, which were also kept in a relatively quiet environment.
In the test animals which were free to move, the first signs of sedation produced by the intragastric administration of 7.5 mg/kg of compounds 1 and 4 appeared, respectively, at 16 minutes (compound 1) and at 8 minutes (compound 4). […] The duration of the effect was, however, shorter, not exceeding 3 hours under these conditions in contrast to the 5 hour minimum for restricted animals.

dorsal hippocampus = assay: Hippocampal after-discharge (stimulation of dorsal hippocampus); type: in vivo; conditions: 7.5 mg/kg intragastric; for Duration of Hippocampal After-Discharge: individual animals
Experimental: The test animals for this study were also prepared according to the technique described by Monnier and Gangloff (infra B, page 30) and the animals were kept in restraint cages in a relatively soundproof room.
The activity of test compounds 1 and 4 was assessed in identical groups of test animals for each compound, with identical numbers of animals for hippocampal after-discharges and for amygdaloid after-discharges. A dose of 7.5 mg/kg of each test compound was adminstered by the intragastric route. In each animal, after-discharges were triggered every 45 minutes after the administration of a test compound.
The stimulation consisted of a series of waves with a duration of 3 m sec., delivered at a frequency of 40 c/sec., with 5 seconds as the total duration of the stimulation. The shocks were delivered by a Neurovar neurostimulator (Alvar Electronic), coupled to a CRC cathode oscilloscope (type OC 343). Cerebral electric activity was recorded by REEGA MINI HUIT electroencephalograph (Alvar Electronic).

[2] = Acute toxicity comparison (LD50, Litchfield and Wilcoxan); conditions: in vivo; for LD50: Table 11, oral, species not given
Experimental: Toxicity in test animals to the test compounds in terms of LD50 after oral and intraperitoneal administration was determined according to the procedure of Litchfield and Wilcoxan (1949) and the hypnotic effect on test animals was determined in accordance with the method of Janssen (1959).

[3] = Motor coordination in rats (rotarod, Dunham and Miya 1957); conditions: for TD50: rat, rotarod, po
[4] = Comparative tranquilizing effects: four plates test; type: in vivo; conditions: for ED50: 1 h, 60 min. after administration, doses between 0.5 and 4 mg/kg, confidence limits for P = 0.05; for Duration of effect: compounds 1 and 4 compared
Description: The method utilized was the 4 plates test of J. R. Boissier, et al (European J. of Pharm. 1968, Vol. 4, pages 145-151).

[5] = Potentiation of narcotic effect of Veronal; conditions: in vivo
[6] = Postural tonus in restrained animals; type: in vivo; conditions: for reduction in postural tonus: more pronounced effect of compound 4 especially at 30 mg/kg
Description: The final observations were concerned with the influence of the test compounds on postural tonus. Evaluationg postural tonus in the animals kept in restraint cages was somewhat difficult. It was possible to judge this aspect by pulling the hind quarters of the animals out of the cage and observing whether the animals was capable of returning spontaneously to its position inside the cage, which control animals were able to do immediately.

[7] = Emotional conditioning response (CER) in rats (Brady, Skinner box); type: in vivo
Description: The method utilized that was published by Brady (1956) using a Skinner Box and a combination of a sound, a light and an electrical shock to produce anxiety in the test animals.
The more an animal is anxious, the less important is the score. When a test compound is a powerful anxiolytic, the value of the score is proportional to the dosage.

[8] = Electrogenesis of various subcortical centers; type: in vivo; conditions: for EEG activity of the hippocampus: in vivo
Experimental: This study was conducted with test animals weighing between 2.6 and 2.8 kg, following the stereotaxic method of Monnier and Gangloff (Atlas et techniques stereotaxique pour le cerveau du lopin eveille, 1961, Elsevier Pub. Co.), permitting the stimulation of certain subcortical structures as well as a simultaneous detection and recording of their electrical activities, which were compared to that of reference cortical electrodes. In this study, the subcortical centers considered were the caudate nucleus, the dorsal hippocampus, the lateral thalamus, the mesenephalic reticular formation, and the hypothalamic reticular formation. Test compounds 1 and 4 were administered by the intragastric route with an identical dose of 7.5 mg/kg.
Spontaneous activity in the subcortical centers of the unanesthetized animals is characterized by desynchronized activity consisting of high amplitude and relatively slow rhythms (4 to 5 c/sec.), alternating with low amplitude rapid rhythms (12 to 13 c/sec.). Tracings from the hippocampus and caudate nucleus sometimes takes the form of bursts, which is less commonly the case from the thalamus. These may occur at the same time as bursts of rapid spikes arising from the frontal cortex. During periods of arousal, this desynchronized activity is followed by a synchronized theta rhythm (7 to 8 c/sec.) from the hippocampus and caudate nucleus and from the median thalamus, whereas the cortical and reticular electrical activities are transformed into ultra-rapid and low voltage rhythms (30μ volts).

[9] = Effect on muscular relaxation in mice (30° inclined screen, Randall); type: in vivo; conditions: for ED50: Mus musculus, po, muscular relaxation, read-out: ED50 (and C.L.)
Experimental: The method utilized was the procedure described by Randall (1961) using a 30° inclined screen.

Compound: C#CCN1C(=O)CN=C(c2ccccc2)c2cc(Cl)ccc21 [Compound 1, 7-chloro-2,3-dihydro-5-phenyl-1-propargyl-1H-1,4-benzodiazepin-2-one]
- duration of the ECoG effect [1]: ≤ 3 h
- first signs of sedation [1]: 16 min
- duration of ECoG effects (three compounds compared) [1]: about 31/2
- effect on duration of hippocampal after-discharge (dorsal hippocampus): markedly increased the duration of after-discharges
- Duration of Hippocampal After-Discharge (dorsal hippocampus; 45 Mins.): 25 s and 14 s and 23 s and 18 s
- Duration of Hippocampal After-Discharge (dorsal hippocampus; 90 Mins.): 27 s and 21 s and 25 s and 11 s and 23 s
- Duration of Hippocampal After-Discharge (dorsal hippocampus; 135 Mins.): 27 s and 16 s and 26 s and 19 s and 25 s
- Duration of Hippocampal After-Discharge (dorsal hippocampus; 180 Mins.): 25 s and 23 s and 24 s and 27 s
- Duration of Hippocampal After-Discharge (dorsal hippocampus; 225 Mins.): 29 s and 26 s and 25 s and 23 s and 34 s
- Duration of Hippocampal After-Discharge (dorsal hippocampus; 270 Mins.): 23 s and 26 s and 21 s and 40 s
- oral toxicity compared with Compounds 3 or 4 ([2]; po): lower oral toxicity
- LD50 [2]: 5820 mg/kg
- % Uncoordinated Animals ([3]; 48 mg/kg/os): 25%
- % Uncoordinated Animals ([3]; 68 mg/kg/os): 50%
- % Uncoordinated Animals ([3]; 96 mg/kg/os): 75%
- dose needed for same motor uncoordination as after Compound 3 or 4 ([3]; oral): about five times more
- TD50 [3]: 67.9 mg/kg
- ED50 [4]: 1.75 mg/kg
- Duration of effect [4]: comparable
- median anxiolytic dose (AD50) compared with compound 4 ([4]; four-plate study): nearly three times less than that of compound 4
- anxiolytic effect compared with compound 4 ([4]; in vivo): more effective anxiolytic effect than compound 4
- narcotic effect of a minimal dose of Veronal [5]: potentiate the narcotic effect of a minimal dose of Veronal
- reduction in postural tonus [6]: slight reduction in the tonus
- Number of Responses, After - CER ([7]; 1.25 mg/kg/os): 77.83 ± 20.41
- Number of Responses, Before - CER ([7]; 1.25 mg/kg/os): 94.67 ± 13.86
- Number of Responses, CER ([7]; 1.25 mg/kg/os): 27.50 ± 11.32
- Number of Responses, After - CER ([7]; 2.5 mg/kg/os): 112.30 ± 17.56
- Number of Responses, Before - CER ([7]; 2.5 mg/kg/os): 142.10 ± 20.03
- Number of Responses, CER ([7]; 2.5 mg/kg/os): 62.10 ± 9.59
- Number of Responses, After - CER ([7]; 5 mg/kg/os): 128.75 ± 17.13
- Number of Responses, Before - CER ([7]; 5 mg/kg/os): 127.13 ± 20.89
- Number of Responses, CER ([7]; 5 mg/kg/os): 63.50 ± 14.96
- activity in antagonizing CER compared with Compound 3 ([7]; rat, in vivo): about twice as active as Compound 3
- effectiveness in reducing anxiety compared with Composition 4 ([7]; rat, in vivo): twice as effective in reducing anxiety as Composition 4
- caudate nucleus bursts of rapid spikes, time of maximum periodicity ([8]; 7.5 mg/kg intragastric): 45 min
- caudate nucleus spikes ([8]; 7.5 mg/kg intragastric): definite effect of compound 1 on the caudate nucleus
- thalamic rhythms ([8]; 7.5 mg/kg intragastric): greater amplitude and lower frequency
- EEG activity of the hippocampus [8]: slow and of high amplitude; also recorded: increase the amplitude of these activities and also reduce their frequency
- % Relaxed Animals ([9]; 5 mg/kg/os): 10%
- % Relaxed Animals ([9]; 10 mg/kg/os): 20%
- % Relaxed Animals ([9]; 20 mg/kg/os): 50%
- % Relaxed Animals ([9]; 40 mg/kg/os): 70%
- ED50 [9]: 21.5 mg/kg
- times less relaxant than compound 3 ([9]; mouse, in vivo): about 1.5 times
- times less relaxant than compound 4 ([9]; mouse, in vivo): about 5.6 times

Compound: C#CCN1C(=O)CN=C(c2ccccc2Cl)c2cc(Cl)ccc21 [Compound 4, 7-chloro-2,3-dihydro-5-(2-chlorophenyl)-1-propargyl-1,H-1,4-benzodiazepine-2-one]
- duration of the ECoG effect [1]: ≤ 3 h
- first signs of sedation [1]: 8 min
- duration of ECoG effects (three compounds compared) [1]: about 31/2
- effect on duration of hippocampal after-discharge (dorsal hippocampus): no apparent effect on the duration of the paroxysm
- Duration of Hippocampal After-Discharge (dorsal hippocampus; 45 Mins.): 10 s and 20 s and 18 s and 14 s and 12 s
- Duration of Hippocampal After-Discharge (dorsal hippocampus; 90 Mins.): 7 s and 16 s and 20 s and 15 s and 11 s
- Duration of Hippocampal After-Discharge (dorsal hippocampus; 135 Mins.): 6 s and 15 s and 17.5 s and 13.5 s and 14 s
- Duration of Hippocampal After-Discharge (dorsal hippocampus; 180 Mins.): 8 s and 10.5 s and 18 s and 15 s
- Duration of Hippocampal After-Discharge (dorsal hippocampus; 225 Mins.): 9 s and 19 s and 18.5 s and 13 s and 10 s
- Duration of Hippocampal After-Discharge (dorsal hippocampus; 270 Mins.): 10 s and 22 s and 27 s and 13 s and 16 s
- LD50 [2]: > 5000 mg/kg
- % Uncoordinated Animals ([3]; 12 mg/kg/os): 37.5%
- % Uncoordinated Animals ([3]; 17 mg/kg/os): 50%
- % Uncoordinated Animals ([3]; 24 mg/kg/os): 87.5%
- Potency Against Comp. 1 ([3]; C.L. (3.09. 6.79), X^2 parallelism 0.005): 4.58
- TD50 [3]: 14.9 mg/kg
- ED50 [4]: 5.5 mg/kg
- Duration of effect [4]: comparable
- usability of 4 plates test ([4]; over 3 mg/kg): caused motor activity to be so reduced that 4 plates test
- narcotic effect of a minimal dose of Veronal [5]: potentiate the narcotic effect of a minimal dose of Veronal
- animals with no attempt to resume previous posture ([6]; 30 mg/kg, at 21/2 hours): one animal out of every three
- reduction in postural tonus [6]: slightly more pronounced effect
- Number of Responses, After - CER ([7]; 1.25 mg/kg/os): 86.43 ± 22.13
- Number of Responses, Before - CER ([7]; 1.25 mg/kg/os): 81.28 ± 16.17
- Number of Responses, CER ([7]; 1.25 mg/kg/os): 26.25 ± 4.57
- Number of Responses, After - CER ([7]; 2.5 mg/kg/os): 79.75 ± 15.24
- Number of Responses, Before - CER ([7]; 2.5 mg/kg/os): 66.75 ± 11.80
- Number of Responses, CER ([7]; 2.5 mg/kg/os): 31.12 ± 6.54
- Number of Responses, After - CER ([7]; 5 mg/kg/os): 79.00 ± 20.03
- Number of Responses, Before - CER ([7]; 5 mg/kg/os): 65.00 ± 14.89
- Number of Responses, CER ([7]; 5 mg/kg/os): 38.37 ± 8.76
- caudate nucleus spikes ([8]; 7.5 mg/kg intragastric): less distinguishable
- duration of slowing of mesencephalic and hypothalamic reticular formation activity ([8]; 7.5 mg/kg intragastric): ≥ 135 min
- thalamic rhythms ([8]; 7.5 mg/kg intragastric): greater amplitude and lower frequency
- EEG activity of the hippocampus [8]: slow and of high amplitude; also recorded: increase the amplitude of these activities and also reduce their frequency
- % Relaxed Animals ([9]; 2 mg/kg/os): 40%
- % Relaxed Animals ([9]; 8 mg/kg/os): 60%
- % Relaxed Animals ([9]; 32 mg/kg/os): 80%
- Potency Against Comp. 1 ([9]; C.L. (1.67-18.80), X^2 parallelism 2.03): 5.60
- ED50 [9]: 3.93 mg/kg
